For experiment [1], the target named is T1, Alpha-1A adrenergic receptor (Homo sapiens, UniProt P35348).
T1 sequence (P35348 whole entry): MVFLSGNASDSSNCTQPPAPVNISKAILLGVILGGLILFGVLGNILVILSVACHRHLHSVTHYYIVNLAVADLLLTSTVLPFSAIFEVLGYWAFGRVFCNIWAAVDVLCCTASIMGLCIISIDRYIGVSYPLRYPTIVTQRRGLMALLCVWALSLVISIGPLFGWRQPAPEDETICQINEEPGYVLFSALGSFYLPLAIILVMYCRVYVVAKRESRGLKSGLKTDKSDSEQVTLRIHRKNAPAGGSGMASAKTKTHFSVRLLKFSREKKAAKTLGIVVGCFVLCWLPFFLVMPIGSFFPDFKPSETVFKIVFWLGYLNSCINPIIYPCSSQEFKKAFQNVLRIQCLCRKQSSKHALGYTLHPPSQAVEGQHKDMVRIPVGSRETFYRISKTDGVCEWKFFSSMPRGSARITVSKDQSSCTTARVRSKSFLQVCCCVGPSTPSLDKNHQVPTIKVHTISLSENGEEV

Experiment [2] addresses 5-hydroxytryptamine receptor 2B (Homo sapiens, UniProt P41595).
Experiment [3] concerns the target Hydroxycarboxylic acid receptor 2 (Homo sapiens, UniProt Q8TDS4).
The target in a further experiment is T2, Androgen receptor (Rattus norvegicus, UniProt P15207).
T2 sequence (P15207 whole entry): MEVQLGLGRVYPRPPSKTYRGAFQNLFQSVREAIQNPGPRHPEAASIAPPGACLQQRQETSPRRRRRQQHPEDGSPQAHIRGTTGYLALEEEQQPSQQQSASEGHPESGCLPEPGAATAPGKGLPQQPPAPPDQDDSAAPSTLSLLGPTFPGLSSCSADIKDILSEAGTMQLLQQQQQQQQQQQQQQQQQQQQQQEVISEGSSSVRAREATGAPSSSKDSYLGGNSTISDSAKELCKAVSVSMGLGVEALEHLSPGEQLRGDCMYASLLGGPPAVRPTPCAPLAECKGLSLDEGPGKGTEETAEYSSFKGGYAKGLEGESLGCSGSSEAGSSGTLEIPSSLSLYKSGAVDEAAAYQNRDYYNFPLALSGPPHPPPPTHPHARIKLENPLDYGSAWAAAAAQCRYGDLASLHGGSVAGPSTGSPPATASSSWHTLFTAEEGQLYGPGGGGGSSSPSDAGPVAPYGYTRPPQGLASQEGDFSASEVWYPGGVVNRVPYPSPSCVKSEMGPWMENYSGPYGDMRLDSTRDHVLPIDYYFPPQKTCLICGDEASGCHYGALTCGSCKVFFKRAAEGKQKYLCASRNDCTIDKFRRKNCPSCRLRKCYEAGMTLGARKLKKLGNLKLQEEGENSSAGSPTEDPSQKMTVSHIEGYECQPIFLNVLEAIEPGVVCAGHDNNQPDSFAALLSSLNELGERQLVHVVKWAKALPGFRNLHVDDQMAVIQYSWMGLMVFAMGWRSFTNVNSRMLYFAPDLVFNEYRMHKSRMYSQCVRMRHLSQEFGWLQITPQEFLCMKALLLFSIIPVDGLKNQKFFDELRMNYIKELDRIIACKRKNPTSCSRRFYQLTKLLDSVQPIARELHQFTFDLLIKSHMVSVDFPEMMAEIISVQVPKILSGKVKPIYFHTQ

Experiment [4] concerns the target Gamma-aminobutyric acid type B receptor subunit 1 (Homo sapiens, UniProt Q9UBS5).
A further experiment has as its target Estrogen receptor beta (Homo sapiens, UniProt Q92731).
Another experiment has as its target D(1A) dopamine receptor (Homo sapiens, UniProt P21728).
In experiment [5] the target is 5-hydroxytryptamine receptor 7 (Homo sapiens, UniProt P34969).
In experiment [6] the target is T3, Estrogen receptor (Homo sapiens, UniProt P03372).
T3 sequence (P03372 whole entry): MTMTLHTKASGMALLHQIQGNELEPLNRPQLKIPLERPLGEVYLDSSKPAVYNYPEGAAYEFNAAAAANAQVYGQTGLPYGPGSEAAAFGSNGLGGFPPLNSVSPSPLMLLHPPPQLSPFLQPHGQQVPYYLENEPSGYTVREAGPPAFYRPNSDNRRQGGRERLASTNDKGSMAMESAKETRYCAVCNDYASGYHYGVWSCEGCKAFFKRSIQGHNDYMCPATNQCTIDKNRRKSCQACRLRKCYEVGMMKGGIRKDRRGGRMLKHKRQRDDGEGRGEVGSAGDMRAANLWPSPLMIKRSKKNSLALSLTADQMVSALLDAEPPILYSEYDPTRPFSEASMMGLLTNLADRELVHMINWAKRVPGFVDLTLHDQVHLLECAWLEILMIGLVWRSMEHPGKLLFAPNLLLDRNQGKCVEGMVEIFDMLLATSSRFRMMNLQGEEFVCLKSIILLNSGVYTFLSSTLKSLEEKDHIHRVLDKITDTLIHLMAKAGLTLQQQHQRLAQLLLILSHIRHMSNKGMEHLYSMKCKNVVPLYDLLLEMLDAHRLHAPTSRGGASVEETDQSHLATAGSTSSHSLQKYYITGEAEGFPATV
The format is functional.

Experiment [7] addresses T3, Estrogen receptor. The format is functional. This is another data set of the same source.
Another experiment addresses Acetylcholinesterase (Homo sapiens, UniProt P22303). It counts as functional.
The target of experiment [8] is Receptor tyrosine-protein kinase erbB-2 (Homo sapiens, UniProt P04626). The format is functional.
The target of experiment [9] is Epidermal growth factor receptor (Homo sapiens, UniProt P00533). It counts as functional.
The target of the next experiment is T4, Thromboxane A2 receptor (Homo sapiens, UniProt P21731).
T4 sequence (P21731 whole entry): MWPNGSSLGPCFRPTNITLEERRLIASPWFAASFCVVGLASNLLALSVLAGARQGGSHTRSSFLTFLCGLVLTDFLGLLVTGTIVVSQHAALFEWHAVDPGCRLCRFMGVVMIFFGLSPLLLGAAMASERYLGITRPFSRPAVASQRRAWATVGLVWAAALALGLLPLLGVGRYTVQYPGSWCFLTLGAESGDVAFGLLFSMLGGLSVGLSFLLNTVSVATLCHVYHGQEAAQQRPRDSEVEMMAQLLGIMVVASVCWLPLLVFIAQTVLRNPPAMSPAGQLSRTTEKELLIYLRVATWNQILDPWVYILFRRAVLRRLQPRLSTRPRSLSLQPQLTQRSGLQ
It counts as functional.

Experiment [10] addresses Vascular endothelial growth factor receptor 2 (Homo sapiens, UniProt P35968). The format is functional.

What is called AC50 is the concentration giving half of the maximal activity seen. The low end stands for greater potency, the high end for weaker potency.
Further: assay procedure not described here.

Chain of Hydroxycarboxylic acid receptor 2 (Q8TDS4 whole entry): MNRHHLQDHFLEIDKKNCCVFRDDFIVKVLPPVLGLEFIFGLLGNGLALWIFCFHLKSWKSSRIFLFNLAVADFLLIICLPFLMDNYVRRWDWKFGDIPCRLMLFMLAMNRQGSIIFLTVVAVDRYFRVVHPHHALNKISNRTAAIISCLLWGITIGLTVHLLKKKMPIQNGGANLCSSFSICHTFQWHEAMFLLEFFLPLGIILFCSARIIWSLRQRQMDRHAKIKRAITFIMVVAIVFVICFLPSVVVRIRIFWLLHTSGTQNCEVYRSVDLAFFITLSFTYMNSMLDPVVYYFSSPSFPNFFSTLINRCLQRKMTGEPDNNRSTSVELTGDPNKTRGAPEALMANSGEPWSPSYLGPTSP
Chain of 5-hydroxytryptamine receptor 2B (P41595 whole entry): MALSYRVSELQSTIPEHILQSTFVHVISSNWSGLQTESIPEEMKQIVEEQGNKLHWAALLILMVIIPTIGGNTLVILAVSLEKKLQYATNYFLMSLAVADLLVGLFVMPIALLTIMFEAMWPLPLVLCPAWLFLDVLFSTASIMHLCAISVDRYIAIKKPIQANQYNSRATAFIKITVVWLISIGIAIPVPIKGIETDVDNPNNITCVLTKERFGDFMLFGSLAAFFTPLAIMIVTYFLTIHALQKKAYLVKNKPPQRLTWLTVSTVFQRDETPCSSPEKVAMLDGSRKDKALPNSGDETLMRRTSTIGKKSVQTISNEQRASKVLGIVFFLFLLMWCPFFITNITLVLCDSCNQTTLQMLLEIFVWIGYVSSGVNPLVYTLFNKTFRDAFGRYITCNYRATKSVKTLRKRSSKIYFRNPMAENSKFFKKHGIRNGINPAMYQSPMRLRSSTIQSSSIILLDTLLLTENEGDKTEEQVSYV
Chain of 5-hydroxytryptamine receptor 7 (P34969 whole entry): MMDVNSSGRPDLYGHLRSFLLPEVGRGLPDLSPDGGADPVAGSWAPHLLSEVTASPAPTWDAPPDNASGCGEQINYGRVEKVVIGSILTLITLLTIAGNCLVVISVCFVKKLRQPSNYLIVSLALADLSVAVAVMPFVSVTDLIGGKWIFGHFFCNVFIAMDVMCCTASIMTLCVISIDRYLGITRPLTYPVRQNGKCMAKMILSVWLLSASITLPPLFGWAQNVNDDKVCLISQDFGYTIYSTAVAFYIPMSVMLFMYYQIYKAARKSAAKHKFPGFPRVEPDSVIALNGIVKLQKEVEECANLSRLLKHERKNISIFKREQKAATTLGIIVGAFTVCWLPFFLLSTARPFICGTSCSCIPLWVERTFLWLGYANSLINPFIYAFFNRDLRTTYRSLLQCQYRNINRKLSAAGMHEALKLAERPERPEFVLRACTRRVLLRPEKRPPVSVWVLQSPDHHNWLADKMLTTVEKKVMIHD
Chain of Estrogen receptor beta (Q92731 whole entry): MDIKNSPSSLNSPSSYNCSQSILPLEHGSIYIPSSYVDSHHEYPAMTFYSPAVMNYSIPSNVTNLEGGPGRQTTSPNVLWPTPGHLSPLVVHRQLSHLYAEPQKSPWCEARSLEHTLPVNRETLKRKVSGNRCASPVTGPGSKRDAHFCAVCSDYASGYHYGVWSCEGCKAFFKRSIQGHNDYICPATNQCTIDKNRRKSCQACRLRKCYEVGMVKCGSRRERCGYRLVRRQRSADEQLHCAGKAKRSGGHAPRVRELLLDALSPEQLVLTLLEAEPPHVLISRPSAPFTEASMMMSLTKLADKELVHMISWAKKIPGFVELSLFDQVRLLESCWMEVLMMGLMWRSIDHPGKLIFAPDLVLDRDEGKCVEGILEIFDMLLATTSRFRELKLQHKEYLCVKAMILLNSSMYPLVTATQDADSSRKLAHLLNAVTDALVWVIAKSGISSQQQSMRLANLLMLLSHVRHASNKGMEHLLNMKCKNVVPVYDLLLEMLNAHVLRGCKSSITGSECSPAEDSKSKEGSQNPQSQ
Chain of D(1A) dopamine receptor (P21728 whole entry): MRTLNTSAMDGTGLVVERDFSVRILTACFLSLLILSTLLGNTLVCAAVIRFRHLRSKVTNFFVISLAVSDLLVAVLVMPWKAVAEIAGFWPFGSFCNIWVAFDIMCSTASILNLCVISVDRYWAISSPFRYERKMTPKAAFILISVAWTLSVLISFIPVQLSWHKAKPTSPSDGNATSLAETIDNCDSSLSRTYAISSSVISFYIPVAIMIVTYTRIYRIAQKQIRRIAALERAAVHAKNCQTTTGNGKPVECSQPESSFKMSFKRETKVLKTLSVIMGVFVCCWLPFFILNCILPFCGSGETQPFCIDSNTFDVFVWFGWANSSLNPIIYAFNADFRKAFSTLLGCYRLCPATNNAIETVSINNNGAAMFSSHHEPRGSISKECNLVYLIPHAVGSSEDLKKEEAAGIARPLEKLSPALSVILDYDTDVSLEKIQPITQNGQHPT
Chain of Gamma-aminobutyric acid type B receptor subunit 1 (Q9UBS5 whole entry): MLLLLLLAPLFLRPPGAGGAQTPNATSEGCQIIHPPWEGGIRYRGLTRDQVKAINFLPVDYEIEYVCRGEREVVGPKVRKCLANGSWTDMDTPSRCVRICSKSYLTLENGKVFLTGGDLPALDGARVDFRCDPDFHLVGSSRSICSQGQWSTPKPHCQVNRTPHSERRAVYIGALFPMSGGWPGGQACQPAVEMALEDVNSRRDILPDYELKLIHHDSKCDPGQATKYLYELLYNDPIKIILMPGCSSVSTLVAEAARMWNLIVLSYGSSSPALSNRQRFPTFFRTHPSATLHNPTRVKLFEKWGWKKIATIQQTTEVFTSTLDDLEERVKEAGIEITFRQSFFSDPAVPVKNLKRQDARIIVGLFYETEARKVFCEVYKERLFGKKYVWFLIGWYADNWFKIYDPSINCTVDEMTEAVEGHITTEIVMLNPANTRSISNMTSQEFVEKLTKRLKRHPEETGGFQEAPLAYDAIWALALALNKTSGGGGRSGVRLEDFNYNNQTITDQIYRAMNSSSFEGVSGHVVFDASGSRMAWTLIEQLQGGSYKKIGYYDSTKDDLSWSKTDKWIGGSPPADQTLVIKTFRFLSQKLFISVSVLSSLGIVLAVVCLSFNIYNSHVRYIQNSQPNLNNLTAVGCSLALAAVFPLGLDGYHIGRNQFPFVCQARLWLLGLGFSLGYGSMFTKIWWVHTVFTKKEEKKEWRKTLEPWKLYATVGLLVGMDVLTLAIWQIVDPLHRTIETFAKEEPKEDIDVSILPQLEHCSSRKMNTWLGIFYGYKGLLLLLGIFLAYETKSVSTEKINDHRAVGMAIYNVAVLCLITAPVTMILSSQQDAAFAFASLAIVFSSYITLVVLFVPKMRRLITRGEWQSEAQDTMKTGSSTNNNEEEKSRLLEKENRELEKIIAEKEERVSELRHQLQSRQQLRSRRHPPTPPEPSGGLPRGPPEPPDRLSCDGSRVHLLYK
Chain of Epidermal growth factor receptor (P00533 whole entry): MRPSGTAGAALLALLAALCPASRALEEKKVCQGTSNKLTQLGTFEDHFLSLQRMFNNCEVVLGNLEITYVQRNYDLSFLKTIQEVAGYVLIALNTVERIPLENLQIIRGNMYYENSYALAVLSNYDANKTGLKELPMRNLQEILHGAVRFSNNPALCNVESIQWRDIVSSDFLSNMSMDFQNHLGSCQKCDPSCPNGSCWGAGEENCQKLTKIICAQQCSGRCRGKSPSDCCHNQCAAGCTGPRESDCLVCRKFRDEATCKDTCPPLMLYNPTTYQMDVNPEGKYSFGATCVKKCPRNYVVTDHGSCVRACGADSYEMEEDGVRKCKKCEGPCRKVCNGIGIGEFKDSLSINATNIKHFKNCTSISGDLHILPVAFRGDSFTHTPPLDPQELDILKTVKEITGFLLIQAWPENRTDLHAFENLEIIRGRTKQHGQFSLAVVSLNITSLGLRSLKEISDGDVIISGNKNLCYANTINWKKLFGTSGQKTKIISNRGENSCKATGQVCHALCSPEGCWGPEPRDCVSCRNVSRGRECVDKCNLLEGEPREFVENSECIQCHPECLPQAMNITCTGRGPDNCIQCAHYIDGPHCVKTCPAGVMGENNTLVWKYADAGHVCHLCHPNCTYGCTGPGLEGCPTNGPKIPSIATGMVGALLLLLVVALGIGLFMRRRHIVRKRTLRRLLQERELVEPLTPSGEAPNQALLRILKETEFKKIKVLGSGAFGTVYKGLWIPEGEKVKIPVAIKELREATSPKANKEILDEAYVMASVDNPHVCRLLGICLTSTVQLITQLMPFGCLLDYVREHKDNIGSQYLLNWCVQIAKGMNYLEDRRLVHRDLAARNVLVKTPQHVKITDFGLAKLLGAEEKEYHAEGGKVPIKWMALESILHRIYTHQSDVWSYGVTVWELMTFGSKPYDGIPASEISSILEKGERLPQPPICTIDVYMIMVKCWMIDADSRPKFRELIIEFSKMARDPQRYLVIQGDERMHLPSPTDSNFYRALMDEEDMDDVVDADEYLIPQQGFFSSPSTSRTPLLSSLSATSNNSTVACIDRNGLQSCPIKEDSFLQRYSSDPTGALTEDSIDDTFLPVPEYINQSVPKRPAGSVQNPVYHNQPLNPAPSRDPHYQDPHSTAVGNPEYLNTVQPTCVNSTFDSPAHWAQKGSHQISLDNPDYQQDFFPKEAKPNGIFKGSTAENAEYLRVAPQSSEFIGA

In experiment [1], `CC(C)C[C@H](NC(=O)[C@@H](O)[C@H](N)Cc1ccccc1)C(=O)O` [UBENIMEX] displayed an AC50 above 30 µM.

With `Cc1ccc(C)c(OCCCC(C)(C)C(=O)O)c1` [GEMFIBROZIL], the AC50 in experiment [2] was above 10 µM; in experiment [3], above 10 µM; at Androgen receptor it was above 30 µM; in [4] it was above 10 µM; on Estrogen receptor beta it was above 30 µM; at D(1A) dopamine receptor it was above 10 µM.

Regarding `O=C(O)Cc1ccccc1Nc1c(Cl)cccc1Cl` [DICLOFENAC], the AC50 is above 10 µM in experiment [2]; above 10 µM in experiment [5]; above 30 µM at Androgen receptor; above 10 µM in [4]; above 30 µM on Estrogen receptor beta; above 10 µM at D(1A) dopamine receptor.

In the case of `CC[C@H](C)C(=O)O[C@H]1C[C@@H](C)C=C2C=C[C@H](C)[C@H](CC[C@@H]3C[C@@H](O)CC(=O)O3)[C@H]21` [LOVASTATIN], the AC50 in experiment [2] is above 10 µM; in experiment [3], above 10 µM; on Estrogen receptor beta it was above 30 µM; at D(1A) dopamine receptor, above 10 µM.

For the compound `CC(C)[C@H](N)C(=O)OCCOCn1cnc2c(=O)[nH]c(N)nc21` [VALACYCLOVIR], the AC50 in experiment [2] was above 10 µM; in [3], above 10 µM; on Estrogen receptor beta it was above 30 µM; at D(1A) dopamine receptor, above 10 µM.

With `CCCc1nc2c(C)cc(-c3nc4ccccc4n3C)cc2n1Cc1ccc(-c2ccccc2C(=O)O)cc1`, the AC50 in experiment [2] is above 10 µM; at Estrogen receptor [6], above 30 µM; in [5], above 10 µM; in experiment [4] it was above 10 µM; on Estrogen receptor [7], above 30 µM; at Estrogen receptor beta, above 30 µM. The same compound returned a concentration at half-maximal activity (AC50) on D(1A) dopamine receptor above 10 µM.

Consider `O=C1Cc2cc(CCN3CCN(c4nsc5ccccc45)CC3)c(Cl)cc2N1` [ZIPRASIDONE], for which the AC50 in [2] was 0.0137 µM; in experiment [3], above 10 µM; on Estrogen receptor beta, above 30 µM.

Turning to `CC=CC1=C(C(=O)O)N2C(=O)[C@@H](NC(=O)[C@H](N)c3ccc(O)cc3)[C@H]2SC1` [CEFPROZIL], the AC50 on Androgen receptor is above 30 µM.

As to `Cc1nc(Nc2ncc(C(=O)Nc3c(C)cccc3Cl)s2)cc(N2CCN(CCO)CC2)n1` [DASATINIB], the AC50 in [2] was 7.6 µM; in [4] it was above 10 µM; on D(1A) dopamine receptor, above 10 µM.

Turning to `Clc1ccc(Cn2c(CN3CCCC3)nc3ccccc32)cc1` [CLEMIZOLE], the AC50 is above 30 µM on Acetylcholinesterase; above 30 µM in experiment [8]; above 30 µM in [9]; above 10 µM on Thromboxane A2 receptor; above 30 µM in experiment [10].

In turn, `CC(C)NC(=N)NC(=N)Nc1ccc(Cl)c(Cl)c1` [CHLORPROGUANIL] gave an AC50 in experiment [1] of 2.74 µM.

Regarding `CC(C)Cc1ccc([C@H](C)C(=O)O)cc1` [DEXIBUPROFEN], the AC50 at Estrogen receptor [6] and on Estrogen receptor [7] was above 30 µM throughout.

The compound `CCCNC(=O)NS(=O)(=O)c1ccc(Cl)cc1` [CHLORPROPAMIDE] gave an AC50 on Estrogen receptor beta above 30 µM.

Take `CN(CCOc1ccc(CC2SC(=O)NC2=O)cc1)c1ccccn1` (configuration not stated) [ROSIGLITAZONE]: the AC50 in experiment [2] was above 10 µM; in experiment [5], above 10 µM; in experiment [4] it was above 10 µM; at Estrogen receptor beta, above 30 µM; at D(1A) dopamine receptor, above 10 µM.

Regarding `CC(CN1c2ccccc2Sc2ccccc21)N(C)C` (configuration not stated) [PROMETHAZINE], the AC50 in experiment [2] is 0.0679 µM; in experiment [3] it was above 10 µM; in experiment [1], 0.03 µM; at Estrogen receptor beta, above 30 µM; at D(1A) dopamine receptor it was 3.38 µM.

With `COc1cc(C(C)=O)ccc1OCCCN1CCC(c2noc3cc(F)ccc23)CC1` [ILOPERIDONE], the AC50 is above 30 µM at Estrogen receptor [6], above 30 µM at Estrogen receptor [7] and 0.0684 µM on D(1A) dopamine receptor.

For the compound `CNC[C@H](O)c1ccc(O)c(O)c1` [EPINEPHRINE], the AC50 on Estrogen receptor [6] and on Estrogen receptor [7] was above 30 µM throughout.

For `CCOc1nc2cccc(C(=O)O)c2n1Cc1ccc(-c2ccccc2-c2nnn[nH]2)cc1`, the AC50 is above 10 µM in experiment [2]; above 30 µM on Estrogen receptor [6]; above 10 µM in experiment [5]; above 30 µM at Androgen receptor; above 10 µM in [4]; above 30 µM on Estrogen receptor [7]. The AC50 was above 30 µM on Estrogen receptor beta and above 10 µM on D(1A) dopamine receptor.

As to `O=C(O)Cc1ccccc1Oc1ccc(Cl)cc1Cl` [FENCLOFENAC], the AC50 (in [2]; in experiment [3]; at D(1A) dopamine receptor) was above 10 µM throughout.

At Androgen receptor, `CNC(=C[N+](=O)[O-])NCCSCc1csc(CN(C)C)n1` [NIZATIDINE] came in with an AC50 above 10 µM.

`CC[C@@H](CO)NC(=O)[C@@H]1C=C2c3cccc4c3c(cn4C)C[C@H]2N(C)C1` [METHYSERGIDE]: the AC50 at Estrogen receptor beta is 24.5 µM.

With `CCC(=O)O[C@]1(C(=O)CCl)[C@@H](C)C[C@H]2[C@@H]3CCC4=CC(=O)C=C[C@]4(C)[C@@]3(F)[C@@H](O)C[C@@]21C` [CLOBETASOL PROPIONATE], the AC50 on Estrogen receptor [6] and on Estrogen receptor [7] was above 30 µM throughout.

As to `Cc1onc(-c2c(F)cccc2Cl)c1C(=O)N[C@@H]1C(=O)N2[C@@H]1SC(C)(C)[C@@H]2C(=O)O` [FLOXACILLIN], the AC50 (on Acetylcholinesterase; in experiment [8]; in experiment [9]; at Thromboxane A2 receptor; in experiment [10]) was above 30 µM in each case.

With `C#C[C@]1(O)C=C[C@H]2[C@@H]3CCC4=CC(=O)CC[C@@H]4[C@H]3CC[C@@]21CC` [GESTODENE], the AC50 in experiment [1] is above 30 µM.

In experiment [1], `CN[C@@H]1[C@H](O[C@H]2[C@H](O[C@H]3[C@H](O)[C@@H](O)[C@H](NC(=N)N)[C@@H](O)[C@@H]3NC(=N)N)O[C@@H](C)[C@]2(O)CO)O[C@@H](CO)[C@H](O)[C@H]1O` [DIHYDROSTREPTOMYCIN] showed an AC50 above 30 µM.

`Nc1c(CC(=O)O)cccc1C(=O)c1ccc(Br)cc1` [BROMFENAC] gave an AC50 in experiment [1] above 30 µM.

The values above are taken from ChEMBL document CHEMBL5291721, “A preclinical secondary pharmacology resource illuminates target-adverse drug reaction associations of marketed drugs” (Nat Commun, 2023).
